Experimental findings from ChEMBL document CHEMBL5365534, “Discovery of a Novel Ketohexokinase Inhibitor with Improved Drug Distribution in Target Tissue for the Treatment of Fructose Metabolic Disease” (J Med Chem, 2023) are described below.

Data set [1] can be described thus: Metabolic stability in rat hepatocyte assessed as parent compound remaining at 10 uM measured after 4 hrs by LC-MS/MS analysis. The class given is ADME, cell-based. Conditions: hepatocytes, read-out: Stability.
The nature of data set [2]: MRT (0 to t) in Sprague-Dawley rat at 10 mg/kg, iv administered as single dose measured upto 24 hrs by LC-MS/MS analysis. The class given is ADME, organism-based. Conditions: in vivo.
The nature of data set [3]: MRT (0 to t) in Beagle dog at 1 mg/kg, iv administered as single dose measured upto 24 hrs by LC-MS/MS analysis. The class given is ADME, organism-based, Canis lupus familiaris. Conditions: in vivo.
Another data set can be described thus: physchem. The note with it: buffer, pH 7.4.
The next data set deals with T1, Cytochrome P450 1A2 (Homo sapiens, UniProt P05177).
T1 sequence (P05177 whole entry): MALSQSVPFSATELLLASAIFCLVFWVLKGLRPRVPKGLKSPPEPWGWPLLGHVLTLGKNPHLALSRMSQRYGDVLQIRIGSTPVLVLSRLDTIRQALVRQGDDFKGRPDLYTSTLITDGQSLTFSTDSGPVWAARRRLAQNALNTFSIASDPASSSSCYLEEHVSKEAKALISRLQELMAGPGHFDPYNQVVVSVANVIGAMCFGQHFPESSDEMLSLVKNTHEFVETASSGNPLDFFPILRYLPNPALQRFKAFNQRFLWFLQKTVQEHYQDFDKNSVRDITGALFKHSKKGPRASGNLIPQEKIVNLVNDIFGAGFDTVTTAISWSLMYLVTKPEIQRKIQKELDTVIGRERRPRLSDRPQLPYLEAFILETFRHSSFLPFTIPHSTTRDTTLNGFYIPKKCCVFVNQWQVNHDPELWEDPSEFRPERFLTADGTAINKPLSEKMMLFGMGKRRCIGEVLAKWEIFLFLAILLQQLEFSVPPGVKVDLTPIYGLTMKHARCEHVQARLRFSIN

The nature of data set [4]: in vivo. The note with it: Sprague-Dawley, rat, liver, po, 10 mg/kg.
Description: Drug concentration in Sprague-Dawley rat liver at 10 mg/kg, po administered as single dose measured upto 24 hrs by LC-MS/MS analysis
Data set [5] can be described thus: in vitro. Conditions: human, liver microsomes. (Microsomes from liver hold many membrane-bound enzymes, among them those of drug oxidation.)
Data set [6] can be described thus: in vitro. Conditions: dog, hepatocytes.
The nature of data set [7]: Oral bioavailability in Sprague-Dawley rat at 10 mg/kg administered as single dose measured upto 24 hrs by LC-MS/MS analysis. The format is ADME, organism-based. The note with it: in vivo.
The nature of data set [8]: in vitro. The note with it: rat, plasma.
Description: Fraction unbound in rat plasma
A short description of data set [9]: Metabolic stability in human hepatocyte assessed as parent compound remaining at 10 uM measured after 4 hrs by LC-MS/MS analysis. The class given is ADME, cell-based. Conditions: hepatocytes, read-out: Stability.
Data set [10] in a line: Elimination half life in Sprague-Dawley rat at 10 mg/kg, iv administered as single dose measured upto 24 hrs by LC-MS/MS analysis. The class given is ADME, organism-based. Conditions: in vivo, read-out: beta t1/2 (converted).
Data set [11] can be described thus: in vitro. The note with it: human, HepG2 cells.
Description: Mitotoxicity in human HepG2 cells incubated for 2 hrs by Celltiter-Glo assay
Data set [12] in a line: Drug metabolism in rat hepatocytes assessed as oxidation/hydrogenation/decarboxylation metabolite at 10 uM measured upto 240 mins by LC-MS/MS analysis. Conditions: 4 h. The format is ADME, cell-based, Hepatocyte.
Data set [13] in a line: Drug metabolism in human hepatocytes assessed as oxidation/hydrogenation/decarboxylation metabolite at 10 uM measured upto 240 mins by LC-MS/MS analysis. The note with it: 4 h. The class given is ADME, cell-based, Hepatocyte.
Data set [14] is described as follows: Metabolic stability in monkey hepatocyte assessed as parent compound remaining at 10 uM measured after 4 hrs by LC-MS/MS analysis. The format is ADME, cell-based, Macaca mulatta. The note with it: rhesus monkey, hepatocytes, read-out: Stability.
Data set [15] in a line: in vivo. The note with it: Sprague-Dawley, rat, kidney/plasma, po, 10 mg/kg.
Description: Ratio of drug concentration in Sprague-Dawley rat kidney to plasma at 10 mg/kg, po administered as single dose measured upto 24 hrs by LC-MS/MS analysis

Each structure is given as a SMILES string. Bounds are passed on as bounds.

Description for Cytochrome P450 1A2: Inhibition of CYP1A2 in human liver microsomes at 0.1 to 30 uM measured for 5 mins in presence of NADPH by LC-MS/MS analysis

As usually defined, the MRT last is the average time that molecules of a dose stay in the body. In general, logD refers to the decadic logarithm of the distribution of all forms, ionised or not, between an organic phase and buffer at a given pH. A word on the IC50: it is the concentration that inhibits the measured activity by half. By microsomal CLint is commonly meant the rate of metabolic loss divided by the concentration. The term hepatocyte CLint denotes the capacity of the preparation to metabolise the compound, expressed as a volume cleared per time. The term bioavailability denotes the share of a dose that reaches the circulation, judged against a reference dose that is usually intravenous. For orientation: fraction unbound means free concentration divided by total concentration. In general, Kp refers to tissue or fluid exposure divided by exposure in the circulation. As for `C[C@H]1CCN1c1nc(N2CC[C@H](CCC(=O)O)C2)c2c(n1)C(F)(F)CC2`, the remaining at 4 h, 10 µM in [1] was 98.2%; in data set [9], 98.5%; in data set [14], 95.8%. Moreover, the mean residence time (MRT last) at 24 h is 6.09 h in [2] and 4.61 h in data set [3]. In addition, in the data set “physchem”, the logD was determined as 0.14. Moreover, the IC50 against Cytochrome P450 1A2 is greater than 30 µM. For the same compound, in “in vivo [4]”, the concentration at 24 h is 50100 ng/g. Moreover, in the data set “in vitro [5]”, the microsomal CLint at 2 h, 1 µM turned out to be 6.4 µL/min/mg. This compound also came in with a hepatocyte CLint at 2 h, 1 µM in “in vitro [6]” of less than 0.96 µL/min/1e6 cells. The compound also displayed a bioavailability in data set [7] of 54.6%. The unbound share (fraction unbound) in the data set “in vitro [8]” amounted to 0.025. For the same compound, the half-life in [10] was 5.82 h. The IC50 at 2 h in the data set “in vitro [11]” was greater than 150 µM. The Drug metabolism result in [12] and in data set [13] was “Metabolite_Notdetected” in each case. Further, the concentration ratio (Kp) at 24 h in “in vivo [15]” was found to be 2.2.
